105 compounds from PubChem BioAssay AID1996 can be followed below.

≈ marks a conversion by molar mass, not a printed value.

For the series the following is noted: buffer; pH 7.4; 200.0 µM.
For orientation: kinetic solubility means the concentration staying in solution when a stock, usually in DMSO, is diluted into the medium. On to `O=C(CSc1cccc[n+]1[O-])C12CC3CC(CC(C3)C1)C2`, for which the solubility (kinetic) is more than 45.5 µg/mL. In the case of `Cn1c(C(=O)O)cc2cc(Oc3ccccc3)ccc21` it was 36 µg/mL (≈ 135 µM); in that of `COC(=O)CSC(=S)N1CCCC(C)C1` (stereo not given), more than 37.1 µg/mL; in that of `CC(=O)Oc1ccc2nc(-c3ccco3)oc(=O)c2c1`, 27.7 µg/mL (≈ 102 µM). `COc1cccc(NC(=S)NC(=O)/C=C/c2ccco2)c1` had a solubility (kinetic) of 11.2 µg/mL (≈ 37 µM). The compound `COc1ccc(-c2ccc(C(=O)O)c(=O)[nH]2)cc1` returned a solubility (kinetic) of more than 36.8 µg/mL. Take `O=C1NC2(CCCCCC2)C(=O)N1Cc1ccc(Br)cc1`: the solubility (kinetic) amounted to 5.2 µg/mL (≈ 14.8 µM). The compound `c1ccc(CNc2ncnc3sccc23)cc1` returned a solubility (kinetic) of 31.9 µg/mL (≈ 132 µM).

In the case of `CCCCNS(=O)(=O)c1cc2c3c(c1)CCN3C(=O)CC2`, the kinetic solubility came to 44.3 µg/mL (≈ 144 µM). In the case of `COc1ccc(-c2onc(C)c2-c2cscn2)c(O)c1` it was more than 43.2 µg/mL. In the case of `CCn1c(NCCO)nc2c(c1=O)C(C)(CC)Cc1ccccc1-2` (stereo not given) it was 12.8 µg/mL (≈ 39.1 µM); in that of `COC(=O)CNC(=O)c1cccc(Cl)c1`, more than 34.1 µg/mL. As for `O=C(/C=C/c1ccco1)NCc1ccc2c(c1)OCO2`, the kinetic solubility was more than 40.7 µg/mL. `O=C(Cc1c(Cl)cccc1Cl)Nc1ccncc1` gave a solubility (kinetic) of more than 42.2 µg/mL. To `O=C(C[n+]1ccc(/C=N/O)cc1)NC(=O)Nc1ccccc1` belongs 41.6 µg/mL; to `CCOCCn1c(SC(C)C(C)=O)nc2c1c(=O)[nH]c(=O)n2C` (stereo not given), more than 51.1 µg/mL. In the case of `CCCCCOc1ccc(C(=O)CCC(=O)NC(C)c2ccc(S(N)(=O)=O)cc2)cc1` (stereo not given) it was 10.9 µg/mL (≈ 24.4 µM). `Cc1ccc2c(c1)N(CC(=O)N1CCCC1)C(=O)CO2`: the solubility (kinetic) was more than 41.1 µg/mL. In the case of `Cc1cc(NC(=O)Cn2c(=O)oc3ccccc32)no1` it was 8.6 µg/mL (≈ 31.5 µM). In the case of `CC(NC(=O)CCc1c[nH]c2ccccc12)c1ccccc1` (stereo not given) it was more than 43.9 µg/mL. To `COc1cccc(N/C(N)=N/c2nc(C)cc(=O)[nH]2)c1` belongs 40.6 µg/mL (≈ 149 µM); to `CCOc1ccc(S(=O)(=O)NC2CCCCCC2)cc1`, less than 0.6 µg/mL; to `Cc1nc(-c2ccc3c(c2)OCCCO3)cs1`, 29.1 µg/mL (≈ 118 µM).

`CC1c2ccccc2N(NC(=O)Cc2ccccc2)C1C` (stereo not given): the kinetic solubility was more than 42.1 µg/mL. In the case of `CN(Cc1ccccc1)C(=O)COc1cc(Cl)ccc1Cl` it was 24.1 µg/mL (≈ 74.3 µM); in that of `COc1ccc(/C=N/S(=O)(=O)c2ccc(C)cc2)cc1`, 41 µg/mL (≈ 142 µM); in that of `O=C(c1cccc2c1-c1ccccc1C2)N1CCCCC1`, more than 41.6 µg/mL. Consider `N#Cc1ccc(C(=O)Nc2cccc3ccccc23)c(F)c1`, for which the kinetic solubility stood at 0.9 µg/mL (≈ 3.1 µM).

The compound `CN(C)C=Nc1c(Br)cc(Br)c2nonc12` showed a kinetic solubility of 6 µg/mL (≈ 17.2 µM).

Turning to `CCOC(=O)N1CCN(C(=O)COC(=O)c2cc(Cl)cc(Cl)c2)CC1`, the kinetic solubility was determined as 57.2 µg/mL (≈ 147 µM). `COc1ccccc1C(=O)NC(CCSC)C(=O)Nc1ccc(C)c(S(=O)(=O)N2CCOCC2)c1` (stereo not given): the solubility (kinetic) was 19.2 µg/mL (≈ 36.8 µM). Take `CC(OC(=O)/C=C/c1cccs1)C(=O)NC1CCCCC1C` (stereo not given): the kinetic solubility came out at 4.9 µg/mL (≈ 15.2 µM). In the case of `O=C(NNC(=O)c1ccccc1-n1cccc1)c1cncc(Br)c1` it was more than 57.8 µg/mL; in that of `COc1ccc(S(=O)(=O)NCc2cccnc2)cc1`, more than 41.7 µg/mL. For the compound `O=C(CCC(=O)Nc1ccccc1Cl)NN=C1CCCC1`, the kinetic solubility is more than 46.2 µg/mL. Take `CN1CCN(c2nc(Nc3ccccc3)nc(N)c2[N+](=O)[O-])CC1`: the solubility (kinetic) was determined as 47.5 µg/mL (≈ 144 µM). On to `CC(C)(CC(=O)O)CC(=O)Nc1ccccc1Oc1ccccc1`, for which the kinetic solubility was more than 49.1 µg/mL.

`O=C(CNc1cccc(S(=O)(=O)N2CCCC2)c1)Nc1cccc(C(F)(F)F)c1`: the kinetic solubility is 21.1 µg/mL (≈ 49.4 µM). On to `O=C(NCCc1ccccc1)C1CCN(C(=O)c2ccc(F)cc2)CC1`, for which the kinetic solubility is 47.4 µg/mL (≈ 134 µM). To `Cl.O=C(CNCc1cccs1)NC12CC3CC(CC(C3)C1)C2` belongs 48.1 µg/mL; to `O=C(NCc1cccnc1)c1ccc([N+](=O)[O-])cc1`, more than 38.6 µg/mL; to `CC1CCCCC1NC(=O)c1ccc(-n2cncn2)cc1` (stereo not given), more than 42.7 µg/mL.

In turn, `CCOc1ccc(N2C(=O)CC(Cc3cc(C)cc(C)c3)C2=O)cc1` (stereo not given) gave a kinetic solubility of 4 µg/mL (≈ 11.9 µM).

In turn, `Cc1cc2nc3c(nc2cc1C)CCCC3` had a kinetic solubility of 24.2 µg/mL (≈ 114 µM). For the compound `O=C(CN1CCOCC1)Nc1cc(C(F)(F)F)ccc1Cl`, the kinetic solubility came out at 39.2 µg/mL (≈ 121 µM). For the compound `O=C(/C=C/c1ccccc1)Nc1nc(-c2ccncc2)cs1`, the solubility (kinetic) is 0.9 µg/mL (≈ 2.93 µM).

`O=[N+]([O-])c1cccc2c(S(=O)(=O)N3CCCCC3)cccc12`: the kinetic solubility amounted to 9.5 µg/mL (≈ 29.7 µM).

Compound `Cc1cc(OC(=O)c2ccc(OC(C)C)cc2)c([N+](=O)[O-])c(=O)[nH]1` showed a kinetic solubility of more than 49.8 µg/mL. To `CNC(=O)c1ccccc1-c1cn(C)c2ccccc2c1=O` belongs more than 43.9 µg/mL; to `O=c1ccnc2n1COCS2`, more than 25.5 µg/mL. `OC1CSc2nc3ccccc3n2C1` (stereo not given) registered a solubility (kinetic) of 26.6 µg/mL (≈ 129 µM).

For the compound `Cc1c(NC(=O)CSCc2ccc(Cl)cc2Cl)cccc1C(=O)O`, the kinetic solubility was more than 57.6 µg/mL. In the case of `O=C(NCCc1ccccc1)C1COc2ccccc2O1` (stereo not given) it was more than 42.5 µg/mL; in that of `Cc1c(C(=O)N2CCCC2)oc2ccc(Br)cc12`, 25.1 µg/mL (≈ 81.4 µM). In the case of `COc1ccc(C(=O)O)c(OC)n1` it was more than 27.5 µg/mL; in that of `N#Cc1ccccc1CN1C(=O)c2ccccc2S1(=O)=O`, 0.8 µg/mL (≈ 2.68 µM).

On to `Cc1ccc(NC(=O)c2ccc3c(c2)CCN3S(C)(=O)=O)cc1C`, for which the kinetic solubility is 2 µg/mL (≈ 5.81 µM).

As for `Fc1cccc(/C=C2\CCCC3=C2NC(=S)NC3c2cccc(F)c2)c1` (stereo not given), the solubility (kinetic) came to 7 µg/mL (≈ 19 µM). Take `CN(C)/C=C1\SC(=S)N(c2ccc(F)cc2)C1=O`: the solubility (kinetic) was determined as 12.6 µg/mL (≈ 44.6 µM). For `O=C(/C=C/c1ccc2c(c1)OCO2)N1CCCCC1`, the kinetic solubility was more than 38.9 µg/mL.

In the case of `CC(C)CC(=O)c1c[nH]c(C(=O)NCc2ccc(F)cc2)c1`, the solubility (kinetic) worked out at 0.7 µg/mL (≈ 2.32 µM).

For the compound `CCCCC(=O)NCc1ccccc1Cl`, the solubility (kinetic) was more than 33.9 µg/mL. `Cc1noc(C)c1CN1C(=O)c2ccc([N+](=O)[O-])cc2C1=O` yielded a solubility (kinetic) of more than 45.2 µg/mL. With `COc1ccc(C(CCO)NC(=O)c2cccs2)cc1OC` (stereo not given), the solubility (kinetic) was more than 48.2 µg/mL.

As for `CC1CN=C(Nc2ccc(F)c(Cl)c2)S1` (stereo not given), the solubility (kinetic) was found to be 17.3 µg/mL (≈ 70.7 µM). In the case of `COc1ccccc1NC(=O)C(C)Sc1nccn1C` (stereo not given) it was more than 43.7 µg/mL; in that of `CC(=O)Nc1ccc(C(=O)NC2CCSc3ccccc32)cc1` (stereo not given), 16.6 µg/mL (≈ 50.9 µM). With `C=Cc1ccc(C(=O)NC2CCCN(Cc3ccccc3F)C2)cc1` (stereo not given), the kinetic solubility was less than 0.4 µg/mL. In the case of `CN(Cc1ccccc1)C(=O)COC(=O)COc1ccc(Cl)cc1` it was 2.9 µg/mL (≈ 8.34 µM); in that of `Br.N#Cc1ccc(CSC2=NCCN2)cc1`, more than 44.7 µg/mL; in that of `Cc1cc(C)cc(NC(=O)N2c3ccccc3NC(=O)CC2C)c1` (stereo not given), 46.8 µg/mL (≈ 145 µM).

Compound `CCOC(=O)c1cc(NC(=O)N(C)C2CCCCC2)c(C)nc1C` registered a solubility (kinetic) of more than 50 µg/mL. Compound `Cc1ccccc1NC(=S)NC(=O)/C=C/c1ccco1` gave a solubility (kinetic) of 38.3 µg/mL (≈ 134 µM).

On to `COC(=O)COc1ccc(-c2nccc(-c3ccccn3)n2)cc1`, for which the solubility (kinetic) was 2.4 µg/mL (≈ 7.47 µM).

Compound `O=C(NCC1CCCCC1)c1cccc(Br)c1` displayed a kinetic solubility of 2.2 µg/mL (≈ 7.43 µM). As for `COc1ccc2c(c1)C(=O)N(CCc1ccc(S(=O)(=O)NC(=O)NC3CCCCC3)cc1)C(=O)C2(C)C`, the solubility (kinetic) was 69.5 µg/mL (≈ 132 µM). In the case of `Cc1ccc2oc(=O)cc(CN3CCN(Cc4ccccc4)CC3)c2c1` it was 19.5 µg/mL (≈ 56 µM); in that of `COc1ccccc1OCCOCCN1CCCC1`, 38.2 µg/mL (≈ 144 µM). For the compound `CN1CCc2cccc3c2[C@@H]1Cc1ccc(O)c(O)c1-3.Cl`, the kinetic solubility worked out at 12.5 µg/mL. In the case of `O=C(O)c1cc(-c2ccco2)nc2cc3ccccc3cc12` it was more than 43.4 µg/mL; in that of `COc1ccccc1C(=O)Nc1c(-c2ccccc2)nc2ccccn12`, 10 µg/mL (≈ 29.1 µM). In the case of `Cc1ccc2nc(SCC(=O)Nc3ncccn3)[nH]c2c1` it was more than 44.9 µg/mL; in that of `N#Cc1ccccc1Oc1ccccc1C=O`, 31.6 µg/mL (≈ 142 µM). `CCn1c(SCC(=O)NC2CC2)nnc1-c1csc(C)c1` came in with a kinetic solubility of more than 48.4 µg/mL.

With `COC(=O)[C@H](CC(C)C)NC(=O)N1CCC(C)CC1`, the kinetic solubility is more than 40.6 µg/mL. `CCOC(=O)N1CCC(NC(=O)c2ccc(Cl)cc2)CC1`: the solubility (kinetic) was more than 46.6 µg/mL. To `CC(C)N(C(=S)Nc1ccc(S(=O)(=O)N2CCOCC2)cc1)c1ccccc1` belongs 7.1 µg/mL (≈ 16.9 µM); to `CC(=O)c1ccc(OCc2cc([N+](=O)[O-])cc3c2OCOC3)cc1`, 2.6 µg/mL (≈ 7.9 µM); to `O=C1C(Cl)=C(NCCN2CCOCC2)C(=O)c2ccccc21`, more than 48.1 µg/mL.

In turn, `C=CCN1C(=O)C2C3CC(=O)C(c4ccccc43)C2C1=O` (stereo not given) displayed a kinetic solubility of more than 42.2 µg/mL. Turning to `Cc1ccc(NC(=O)c2cccc3ccccc23)cc1`, the solubility (kinetic) was less than 0.6 µg/mL. In turn, `C=C(C)c1cccc(C(C)(C)NC(=O)NCc2cccnc2)c1` came in with a kinetic solubility of more than 46.4 µg/mL.

For the compound `O=c1onc(-c2ccc(Cl)cc2Cl)n1-c1cccnc1`, the kinetic solubility was 19.5 µg/mL (≈ 63.3 µM). In the case of `CN(C)c1ccc(/C=C2\SC(N3CCCCC3)=NC2=O)cc1` it was 4.7 µg/mL (≈ 14.9 µM); in that of `O=C(CNCc1ccco1)Nc1cc(S(=O)(=O)N2CCOCC2)ccc1N1CCOCC1`, more than 69.7 µg/mL. To `CN1CCN(C(=S)c2ccc(-c3cc(Cl)ccc3Cl)o2)CC1` belongs 3.3 µg/mL (≈ 9.29 µM). To `Cc1nc2ccc(NC(=S)N3CCOCC3)cc2nc1C` belongs 39.3 µg/mL (≈ 130 µM). `CCc1cc(=O)[nH]c(SCC(=O)N2CCCC2)n1` came in with a solubility (kinetic) of more than 40.1 µg/mL. To `CCCCNC(=O)COC(=O)c1ccc(F)cc1Cl` belongs more than 43.2 µg/mL; to `Cc1cc(C(C)(C)C)cc(C)c1COC(=O)c1cccnc1`, 1.7 µg/mL (≈ 5.72 µM); to `CCC1Sc2ccccc2N(CC(=O)NC2CC2)C1=O` (stereo not given), 39.6 µg/mL (≈ 136 µM). With `NC(=O)C1CCN(CC(=O)NC(=O)NC2CCCC2)CC1`, the kinetic solubility is more than 44.5 µg/mL. In turn, `COc1ccc(NC(=O)C#Cc2ccccc2)cc1` came in with a solubility (kinetic) of 5.2 µg/mL (≈ 20.7 µM). In the case of `COc1ccc(NC(=S)NCCCN2CCCC2)cc1Cl` it was more than 49.2 µg/mL; in that of `Cc1ccc(C2N=C(N)Nc3nc4ccccc4n32)cc1` (stereo not given), 35 µg/mL (≈ 126 µM).
